Several values for one entry are separate records, joined by “and”; a condition that tells them apart may be missing. Equal values may be shown once.

One may read the IC50 as the concentration that gives 50% inhibition. A higher IC50 goes with weaker potency in that assay.

The assay concerns the target cortisol synthase (CYP11B1) (Macaca fascicularis, UniProt A0A2K5ULY1). In words: Inhibition of Cortisol Synthesis. The assay is classed as biochemical, cynomolgus monkey. To be noted: cynomolgus adrenal gland mitochondria; 150 units of CYP11B1, 11-deoxycortisol as substrate, cortisol measured as product. An outline of the steps:
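Cynomolgus adrenal mitochondria as enzyme source (1 unit = 1 pmol product/h); 150 units CYP11B1 with 11-deoxycortisol substrate in 100 mM potassium phosphate pH 7.4, 1% DMSO, started with 1 mM NADPH, 90 min at 37 °C. Cortisol quantified by mass spectrometry; no-NADPH blank as 0%, no-compound as 100% activity.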
As for `NC(=O)c1cccc2c1OCC(c1cncc(C(O)C(F)(F)F)c1)O2` (single isomer, unassigned) [Cpd 49BA, 2-[5-(2,2,2-Trifluoro-1-hydroxy-ethyl)-pyridin-3-yl]-2,3-dihydro-benzo[1,4]dioxine-5-carboxylic acid amide], the IC50 is 2.5 µM and 1.1 µM.
Regarding `N#Cc1cccc2c1OCC(c1cncc(C3(O)CCOCC3)c1)O2` (single isomer, unassigned) [Cpd 50B, 2-[5-(4-Hydroxy-tetrahydro-pyran-4-yl)-pyridin-3-yl]-2,3-dihydro-benzo[1,4]dioxine-5-carbonitrile], the IC50 is 3.3 µM.
`NC(=O)c1cccc2c1OCC(c1cncc(F)c1)O2` (single isomer, unassigned) [Cpd 51A, 2-(5-Fluoro-pyridin-3-yl)-2,3-dihydro-benzo[1,4]dioxine-5-carboxylic acid amide]: the IC50 came out at 1.2 µM.
`NC(=O)c1cccc2c1OCC(c1cncc(F)c1)O2` (single isomer, unassigned) [Cpd 51B, 2-(5-Fluoro-pyridin-3-yl)-2,3-dihydro-benzo[1,4]dioxine-5-carboxylic acid amide]: 20 µM corresponded to half-maximal inhibition (IC50).
Next, `NC(=O)c1cccc2c1OCC(c1cncc3c1CCC3O)O2` (single isomer, unassigned) [Cpd 52AA, 2-(7-Hydroxy-6,7-dihydro-5H-[2]pyrindin-4-yl)-2,3-dihydro-benzo[1,4]dioxine-5-carboxylic acid amide]: 4.1 µM; `NC(=O)c1cccc2c1OCC(c1cncc3c1CCC3O)O2` (single isomer, unassigned) [Cpd 52AB, 2-(7-Hydroxy-6,7-dihydro-5H-[2]pyrindin-4-yl)-2,3-dihydro-benzo[1,4]dioxine-5-carboxylic acid amide]: 0.82 µM.
Regarding `NC(=O)c1cccc2c1OCC(c1cncc3c1CCC3O)O2` (single isomer, unassigned) [Cpd 52BA, 2-(7-Hydroxy-6,7-dihydro-5H-[2]pyrindin-4-yl)-2,3-dihydro-benzo[1,4]dioxine-5-carboxylic acid amide], 16 µM corresponded to half-maximal inhibition (IC50).
Compound `NC(=O)c1cccc2c1OCC(c1cncc3c1CCC3O)O2` (single isomer, unassigned) [Cpd 52BB, 2-(7-Hydroxy-6,7-dihydro-5H-[2]pyrindin-4-yl)-2,3-dihydro-benzo[1,4]dioxine-5-carboxylic acid amide] gave a 50% inhibitory concentration (IC50) of 13 µM.
`CCS(=O)(=O)NCc1cncc(C2COc3c(C#N)cccc3O2)c1` (single isomer, unassigned) [Cpd 54A, Ethanesulfonic acid [5-(5-cyano-2,3-dihydro-benzo[1,4]dioxin-2-yl)-pyridin-3-ylmethyl]-amide] registered a half-maximal inhibitory concentration (IC50) of 23 µM.
`CCS(=O)(=O)NCc1cncc(C2COc3c(C#N)cccc3O2)c1` (single isomer, unassigned) [Cpd 54B, Ethanesulfonic acid [5-(5-cyano-2,3-dihydro-benzo[1,4]dioxin-2-yl)-pyridin-3-ylmethyl]-amide] yielded an IC50 of 14 µM.
As to `N#Cc1cccc2c1OCC(c1cncc(CC(=O)N3CC[C@@H](O)C3)c1)O2` (single isomer, unassigned) [Cpd 55A], the IC50 turned out to be 11 µM.
With `N#Cc1cccc2c1OCC(c1cncc(CC(=O)N3CC[C@@H](O)C3)c1)O2` (single isomer, unassigned) [Cpd 55B], the IC50 was above 30 µM.
`C[C@H](O)c1c(F)cncc1C1COc2c(cccc2C(N)=O)O1` (single isomer, unassigned) [Cpd 56A] came in with an IC50 of 14 µM.
Next, `C[C@H](O)c1c(F)cncc1C1COc2c(cccc2C(N)=O)O1` (single isomer, unassigned) [Cpd 56B]: 14 µM; `C[C@@H](O)c1c(F)cncc1C1COc2c(cccc2C(N)=O)O1` (single isomer, unassigned) [Cpd 57A]: 16 µM.
Consider `C[C@@H](O)c1c(F)cncc1C1COc2c(cccc2C(N)=O)O1` (single isomer, unassigned) [Cpd 57B], for which the IC50 was found to be 15 µM.
The compound `CC(C)(O)c1c(F)cncc1C1COc2c(cccc2C(N)=O)O1` (single isomer, unassigned) [Cpd 58A, 2-[5-Fluoro-4-(1-hydroxy-1-methyl-ethyl)-pyridin-3-yl]-2,3-dihydro-benzo[1,4]dioxine-5-carboxylic acid amide] showed a half-inhibitory concentration (IC50) of 23 µM.
Compound `CC(C)(O)c1c(F)cncc1C1COc2c(cccc2C(N)=O)O1` (single isomer, unassigned) [Cpd 58B, 2-[5-Fluoro-4-(1-hydroxy-1-methyl-ethyl)-pyridin-3-yl]-2,3-dihydro-benzo[1,4]dioxine-5-carboxylic acid amide] returned a half-inhibitory concentration (IC50) of 3 µM.
Next, `Cc1cncc(C2COc3c(cccc3C(N)=O)O2)c1` (single isomer, unassigned) [Cpd 59A, 2-(5-Methyl-pyridin-3-yl)-2,3-dihydro-benzo[1,4]dioxine-5-carboxylic acid amide]: 1.1 µM; `Cc1cncc(C2COc3c(cccc3C(N)=O)O2)c1` (single isomer, unassigned) [Cpd 59B, 2-(5-Methyl-pyridin-3-yl)-2,3-dihydro-benzo[1,4]dioxine-5-carboxylic acid amide]: 0.89 µM; `CCS(=O)(=O)NC(c1cncc(C2COc3c(cccc3C(N)=O)O2)c1)C1CC1` (single isomer, unassigned) [Cpd 60AA]: above 30 µM.
For `CCS(=O)(=O)NC(c1cncc(C2COc3c(cccc3C(N)=O)O2)c1)C1CC1` (single isomer, unassigned) [Cpd 60AB], the IC50 is above 30 µM.
Consider `CCS(=O)(=O)NC(c1cncc(C2COc3c(cccc3C(N)=O)O2)c1)C1CC1` (single isomer, unassigned) [Cpd 60BA], for which the IC50 is above 30 µM.
`CCS(=O)(=O)NC(c1cncc(C2COc3c(cccc3C(N)=O)O2)c1)C1CC1` (single isomer, unassigned) [Cpd 60BB]: the IC50 is above 30 µM.
As for `Cc1c(C#N)cncc1C1COc2c(cccc2C(N)=O)O1` (single isomer, unassigned) [Cpd 61A, 2-(5-cyano-4-methyl-pyridin-3-yl)-2,3-dihydro-benzo[1,4]dioxine-5-carboxylic acid amide], the half-inhibitory concentration (IC50) was 25 µM.
In turn, `Cc1c(C#N)cncc1C1COc2c(cccc2C(N)=O)O1` (single isomer, unassigned) [Cpd 61B, 2-(5-cyano-4-methyl-pyridin-3-yl)-2,3-dihydro-benzo[1,4]dioxine-5-carboxylic acid amide] came in with an IC50 of 22 µM.
Regarding `CS(=N)(=O)Cc1cncc(C2COc3c(C#N)cccc3O2)c1` (single isomer, unassigned) [Cpd 62AA, 2-(5-{[imino(methyl)oxo-λ^6-sulfanyl]methyl}pyridin-3-yl)-2,3-dihydro-1,4-benzodioxine-5-carbonitrile], the IC50 is above 30 µM.
In the case of `CS(=N)(=O)Cc1cncc(C2COc3c(C#N)cccc3O2)c1` (single isomer, unassigned) [Cpd 62AB, 2-(5-{[imino(methyl)oxo-λ^6-sulfanyl]methyl}pyridin-3-yl)-2,3-dihydro-1,4-benzodioxine-5-carbonitrile] it was above 30 µM; in that of `CS(=N)(=O)Cc1cncc(C2COc3c(C#N)cccc3O2)c1` (single isomer, unassigned) [Cpd 62BA, 2-(5-{[imino(methyl)oxo-λ^6-sulfanyl]methyl}pyridin-3-yl)-2,3-dihydro-1,4-benzodioxine-5-carbonitrile], 14 µM; in that of `CS(=N)(=O)Cc1cncc(C2COc3c(C#N)cccc3O2)c1` (single isomer, unassigned) [Cpd 62BB, 2-(5-{[imino(methyl)oxo-λ^6-sulfanyl]methyl}pyridin-3-yl)-2,3-dihydro-1,4-benzodioxine-5-carbonitrile], 18 µM.
`N#Cc1cccc2c1OCC(c1cncc(CNC(=O)C(F)(F)F)c1)O2` (stereo not shown) [Cpd 53, N-[5-(5-Cyano-2,3-dihydro-benzo[1,4]dioxin-2-yl)-pyridin-3-ylmethyl]-2,2,2-trifluoro-acetamide] yielded an IC50 of 24 µM.

For the origin of these results see patent US9745289B2, “Aldosterone synthase inhibitors” (Boehringer Ingelheim International GmbH, priority 2014, dated 2017).
